According to US11046745B2, “Peptide mimotopes of the CD3 T-cell co-receptor epsilon chain and uses thereof” (BioNTech SE, priority 2015, dated 2021):
Positions of bridges follow the written chain, without caps; N, C: chain ends. Residues, ends and D or L forms follow the SMILES beside them. No end group written: not given here. *: point of attachment. Biotin = O=C1N[C@H]2[C@H](CS[C@H]2CCCCC(=O)*)N1

Experiments:
[1] = system: TR66 antibody (CD3ε specific antibody, clone TR66); assay: Binding analysis using biolayer interferometry (BLI), Octet Red, biotinylated peptides on streptavidin sensors; settings: for Yes/no binding, BLI: 500 nM TR66 antibody, one concentration; for Binding of TR66 in detailed BLI analysis (FIG. 5): TR66 1.5625 to 100 nM, dissociation constant could not be fitted
Procedure: FIG. 5. Comparative binding analysis of matured TR66 mimotopes aCD3-04-002 and aCD3-04-013 using biolayer interferometry (BLI) on an Octet Red system (fortéBIO). Biotinylated peptides were immobilized onto streptavidin (SA) sensors. After blocking with 1× blocking buffer and biocytin association and dissociaten rates of TR66 binding were recorded over a period of 2400 sec respectively. The antibody was used in a range of 1.5625 to 100 nM (1.5625, 3.125, 6.25, 12.5, 25, 50, 100 nM) for each analyzed peptide.
Binding analysis was performed using streptavidin (SA) sensors on an Octet Red system (fortéBIO). 5 μg/ml of biotinylated peptides were used for loading (200 μl per sensor). […] Remained biotin binding sites on coated streptavidin sensors were blocked using 100 μg/ml biocytin (Sigma-Aldrich) for 5 minutes. For binding mode analysis of different peptides 500 nM TR66 antibody was used in the association step. For detailed analysis the antibody was used in a range of 1.5625 to 100 nM (1.5625, 3.125, 6.25, 12.5, 25, 50, 100 nM) for each analyzed peptide. The following program was used: • Baseline: 1000 rpm for 180 sec. • Load: 1000 rpm for 900 sec. • Baseline: 1000 rpm for 180 sec. • Blocking: 1000 rpm for 300 sec. • Association: 1000 rpm for 1200-2400 sec. • Dissociation: 1000 rpm for 1200-2400 sec.
The peptides displaying the highest binding affinities from the peptide microarray experiments were synthesized by standard Fmoc-based solid-phase-synthesis protocols and purified (HPLC purity: >80%). The binding characteristics of each peptide were determined. In the first instance all peptides were analysed via biolayer interferometry (BLI) to get a first impression whether the respective variant has a significant binding property at all (yes/no binding, Table 2). At his point, only one TR66 concentration (500 nM) was tested. Except variants aCD3-04-010 and aCD3-04-012 all peptides show a measurable binding activity.

[2] = biological target: TR66 antibody (CD3ε specific antibody, clone TR66); assay: Binding analysis using peptide ELISA, biotinylated peptides on streptavidin plates, TR66; settings: TR66; mean of at least two individual measurements; two-site saturation binding model; read-out: Apparent KD, ELISA
Procedure: FIG. 3. Binding analysis of phage derived variants using a peptide based ELISA. Biotinylated peptides were immobilized on streptavidin plates (Nunc) in a concentration of 0.75 μg/ml. After blocking 30 μg/ml TR66 or an unrelated antibody (control ab) were added and incubated for 1 h at 37° C. Binding was detected with an alkaline phosphatase conjugated goat anti-human IgG antibody (Sigma) and the chromogenic substrate PNPP (para-nitrophenyl phosphate). All reactions were performed as duplicates. SD values are presented as error bars.
For the detection of TR66 or OKT3 (Bio-X-Cell), the CD3 mimicking peptides were immobilized on streptavidin plates (Nunc) in a concentration of 0.75 μg/ml in PBS buffer for 1 hour at 37° C. Subsequently, the plate was washed three times with washing buffer (0.01% Tween-20 in PBS buffer) before it was blocked with 3% BSA in PBS overnight at 4° C. To detect TR66 or OKT3, the blocked plate was washed again three times with washing buffer followed by the addition of TR66 or OKT3 and incubation for 30 min at 37° C. After another washing step, it was incubated with an alkaline phosphatase conjugated Goat anti-human or anti-mouse IgG, Fe antibody (Jackson Immuno Research) for additional 30 min at 37° C. Finally, the plate was washed again before being incubated with 1.5 mg/ml of the substrate PNPP (para-nitrophenyl phosphate) in appropriate substrate buffer (1 M Diethanolamine, 0.05 mM MgCl2, 0.01% sodium azide, pH 9.8) for 30 min at RT in the dark. 3 M KOH was used to stop the enzymatic reaction. Absorbance was measured with a microplate reader (Infinite M200, Tecan). For dual wavelength analysis, 405 nm was chosen as measurement wavelength and 492 nm as reference wavelength. Absorbance values were calculated by subtraction of the measured values for the reference wavelength and for the measurement wavelength. Calculation of apparent KD values was done by fitting the data with Sigma Plot 10 using a two-site saturation binding model.

[3] = system: Muromonab-CD3 (Orthoclone OKT3), CD3-specific monoclonal antibody; assay: Peptide ELISA for cross-reactivity to OKT3; type: binding, murine
Procedure: FIG. 6. Comparative binding analysis of maturated TR66 mimotope aCD3-04-013 to approved antibody Muromanab-CD3 (Orthoclone OKT3®). Biotinylated peptides were immobilized on streptavidin plates (Nunc). After blocking different concentrations (0, 156, 312, 625, 1250, 5000 and 10000 ng/ml) of TR66, OKT3 or an unrelated antibody (control ab) were added and incubated for 1 h at 37° C. Binding was detected with an alkaline phosphatase conjugated goat anti-human IgG antibody (Sigma) and the chromogenic substrate PNPP (para-nitrophenyl phosphate). All reactions were performed as duplicates. SD values are presented as error bars.
For the detection of TR66 or OKT3 (Bio-X-Cell), the CD3 mimicking peptides were immobilized on streptavidin plates (Nunc) in a concentration of 0.75 μg/ml in PBS buffer for 1 hour at 37° C. Subsequently, the plate was washed three times with washing buffer (0.01% Tween-20 in PBS buffer) before it was blocked with 3% BSA in PBS overnight at 4° C. To detect TR66 or OKT3, the blocked plate was washed again three times with washing buffer followed by the addition of TR66 or OKT3 and incubation for 30 min at 37° C. […] Absorbance was measured with a microplate reader (Infinite M200, Tecan). […] Absorbance values were calculated by subtraction of the measured values for the reference wavelength and for the measurement wavelength. […]

## C[C@H](N)C(=O)N[C@H]1CSSC[C@@H](C(=O)NCC(=O)NCC(=O)NCC(=O)N[C@@H](CO)C(=O)N[C@@H](CCCCNC(=O)CCCC[C@@H]2SC[C@@H]3NC(=O)N[C@@H]32)C(=O)O)NC(=O)[C@H](C)NC(=O)[C@@H]2CCCN2C(=O)[C@H](CC(=O)O)NC(=O)CNC(=O)[C@@H]2CCCN2C(=O)[C@H](CCCNC(=N)N)NC(=O)[C@H]([C@@H](C)O)NC1=O [aCD3-04-008, ACTRPGDPAC-GGGS-K(Bio)] (H-ACTRPGDPACGGGSK(Biotin)-OH; disulfide 2-10)
[1]
  Yes/no binding, BLI: Yes
[2]
  Kd: 164 nM

## C[C@H](N)C(=O)N[C@H]1CSSC[C@@H](C(=O)NCC(=O)NCC(=O)NCC(=O)N[C@@H](CO)C(=O)N[C@@H](CCCCNC(=O)CCCC[C@@H]2SC[C@@H]3NC(=O)N[C@@H]32)C(=O)O)NC(=O)[C@H](CCC(N)=O)NC(=O)[C@@H]2CCCN2C(=O)[C@H](CC(=O)O)NC(=O)[C@H](CC(=O)O)NC(=O)[C@@H]2CCCN2C(=O)[C@H](CCCNC(=N)N)NC(=O)[C@H]([C@@H](C)O)NC1=O [aCD3-04-002, ACTRPDDPQC-GGGS-K(Bio)] (H-ACTRPDDPQCGGGSK(Biotin)-OH; disulfide 2-10)
[1]
  Yes/no binding, BLI: Yes
  Binding of TR66 in detailed BLI analysis (FIG. 5): concentration-dependent binding
[2]
  Kd: 78 nM

## C[C@@H](O)[C@@H]1NC(=O)[C@@H](NC(=O)[C@@H](N)Cc2c[nH]c3ccccc23)CSSC[C@@H](C(=O)NCC(=O)NCC(=O)NCC(=O)N[C@@H](CO)C(=O)N[C@@H](CCCCNC(=O)CCCC[C@@H]2SC[C@@H]3NC(=O)N[C@@H]32)C(=O)O)NC(=O)[C@H](CCC(N)=O)NC(=O)[C@@H]2CCCN2C(=O)[C@H](CC(=O)O)NC(=O)CNC(=O)[C@@H]2CCCN2C(=O)[C@H](CCCNC(=N)N)NC1=O [aCD3-04-006, WCTRPGDPQC-GGGS-K(Bio)] (H-WCTRPGDPQCGGGSK(Biotin)-OH; disulfide 2-10)
[1]
  Yes/no binding, BLI: Yes
[2]
  Kd: 226 nM

## C[C@H](N)C(=O)N[C@H]1CSSC[C@@H](C(=O)NCC(=O)NCC(=O)NCC(=O)N[C@@H](CO)C(=O)N[C@@H](CCCCNC(=O)CCCC[C@@H]2SC[C@@H]3NC(=O)N[C@@H]32)C(=O)O)NC(=O)[C@H](Cc2ccc(O)cc2)NC(=O)[C@@H]2CCCN2C(=O)[C@H](CC(=O)O)NC(=O)CNC(=O)[C@@H]2CCCN2C(=O)[C@H](CCCNC(=N)N)NC(=O)[C@H]([C@@H](C)O)NC1=O [aCD3-04-009, ACTRPGDPYC-GGGS-K(Bio)] (H-ACTRPGDPYCGGGSK(Biotin)-OH; disulfide 2-10)
[1]
  Yes/no binding, BLI: Yes
[2]
  Kd: 167 nM

## ACTR(NMI)GDPQC-GGGS-K(Bio) (ACTRLGDPQCGGGSK; not fully specified; N-methylisoleucine; GGGS linker; biotinylated lysine; MOD_RES (5)..(5) N-methylisoleucine; MOD_RES (15)..(15) K(Bio)) [aCD3-04-010]
[1]
  Yes/no binding, BLI: No

## C[C@H](N)C(=O)N[C@H]1CSSC[C@@H](C(=O)NCC(=O)NCC(=O)NCC(=O)N[C@@H](CO)C(=O)N[C@@H](CCCCNC(=O)CCCC[C@@H]2SC[C@@H]3NC(=O)N[C@@H]32)C(=O)O)NC(=O)[C@H](CCC(N)=O)NC(=O)[C@@H]2CCCN2C(=O)[C@H](CC(=O)O)NC(=O)[C@H](CCC(=O)O)NC(=O)[C@@H]2CCCN2C(=O)[C@H](CCCNC(=N)N)NC(=O)[C@H]([C@@H](C)O)NC1=O [aCD3-04-007, ACTRPEDPQC-GGGS-K(Bio)] (H-ACTRPEDPQCGGGSK(Biotin)-OH; disulfide 2-10)
[1]
  Yes/no binding, BLI: Yes
[2]
  Kd: 299 nM

## C[C@H](N)C(=O)N[C@H]1CSSC[C@@H](C(=O)NCC(=O)NCC(=O)NCC(=O)N[C@@H](CO)C(=O)N[C@@H](CCCCNC(=O)CCCC[C@@H]2SC[C@@H]3NC(=O)N[C@@H]32)C(=O)O)NC(=O)[C@H](CCC(=O)O)NC(=O)[C@@H]2CCCN2C(=O)[C@H](CC(=O)O)NC(=O)[C@H](CC(=O)O)NC(=O)[C@@H]2CCCN2C(=O)[C@H](CCCNC(=N)N)NC(=O)[C@H]([C@@H](C)O)NC1=O [aCD3-04-013, ACTRPDDPEC-GGGS-K(Bio)] (H-ACTRPDDPECGGGSK(Biotin)-OH; disulfide 2-10)
[1]
  Yes/no binding, BLI: Yes
  Binding of TR66 in detailed BLI analysis (FIG. 5): concentration-dependent binding
[2]
  Kd: 4 nM
[3]; OKT3 titration 0-10000 ng/ml
  Binding of OKT3 to mimotope, ELISA titration (FIG. 6): specific binding
[3]; different detection antibodies for TR66 and OKT3
  Affinity of OKT3 binding compared to TR66 binding, ELISA: slightly lower affinity

## ACTRPWDPQC-GGGS-K(Bio) (ACTRPWDPQCGGGSK(Biotin); disulfide 2-10 (inferred)) [aCD3-04-012]
[1]
  Yes/no binding, BLI: No

## C[C@H](N)C(=O)N[C@H]1CSSC[C@@H](C(=O)NCC(=O)NCC(=O)NCC(=O)N[C@@H](CO)C(=O)N[C@@H](CCCCNC(=O)CCCC[C@@H]2SC[C@@H]3NC(=O)N[C@@H]32)C(=O)O)NC(=O)[C@H](Cc2c[nH]c3ccccc23)NC(=O)[C@@H]2CCCN2C(=O)[C@H](CC(=O)O)NC(=O)[C@H](CC(=O)O)NC(=O)[C@@H]2CCCN2C(=O)[C@H](CCCNC(=N)N)NC(=O)[C@H]([C@@H](C)O)NC1=O [aCD3-04-014, ACTRPDDPWC-GGGS-K(Bio)] (H-ACTRPDDPWCGGGSK(Biotin)-OH; disulfide 2-10)
[1]
  Yes/no binding, BLI: Yes
[2]
  Kd: 111 nM
